Reference: ChEMBL document CHEMBL6153132 (J Med Chem, 2025)
Activity calls are given as the source filed them. No cut-off for these calls is given here.

Key:
[1] = Metabolic stability in human liver microsome assessed as half life; assay type: ADME, microsomes; settings: microsomes
[2] = Metabolic stability in human liver microsome assessed as intrinsic clearance; assay type: ADME; settings: microsomes
[3] = Lipophilicity, logD of compound at pH 7.4; assay type: physicochemical; settings: buffer
[4] = biological target: T1, Interstitial collagenase (Homo sapiens) (UniProt P03956); assay: Inhibition of MMP1 (unknown origin) at 10 uM relative to control
T1 sequence (whole entry): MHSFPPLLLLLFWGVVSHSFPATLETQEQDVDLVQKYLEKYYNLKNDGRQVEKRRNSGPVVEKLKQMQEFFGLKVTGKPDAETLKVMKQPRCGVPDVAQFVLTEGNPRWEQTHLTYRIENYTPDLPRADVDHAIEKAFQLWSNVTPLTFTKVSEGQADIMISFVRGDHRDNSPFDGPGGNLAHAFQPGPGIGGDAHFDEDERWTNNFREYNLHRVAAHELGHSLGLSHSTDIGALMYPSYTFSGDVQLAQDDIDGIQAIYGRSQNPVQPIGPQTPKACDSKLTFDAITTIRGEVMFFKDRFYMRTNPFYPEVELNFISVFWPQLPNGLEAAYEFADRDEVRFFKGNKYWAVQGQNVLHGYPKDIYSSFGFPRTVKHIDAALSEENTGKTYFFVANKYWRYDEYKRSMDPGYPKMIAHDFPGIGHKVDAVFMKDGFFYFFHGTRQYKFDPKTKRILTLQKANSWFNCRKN

[5] = biological target: 72 kDa type IV collagenase (Homo sapiens) (UniProt P08253); assay: Inhibition of MMP2 (unknown origin) at 10 uM relative to control
[6] = biological target: Stromelysin-1 (Homo sapiens) (UniProt P08254); assay: Inhibition of MMP3 (unknown origin) at 10 uM relative to control
[7] = biological target: Matrix metalloproteinase-9 (Homo sapiens) (UniProt P14780); assay: Inhibition of MMP9 (unknown origin) at 10 uM relative to control
[8] = biological target: Collagenase 3 (Homo sapiens) (UniProt P45452); assay: Inhibition of MMP13 (unknown origin) at 10 uM relative to control
[9] = biological target: Glutaminyl-peptide cyclotransferase (Homo sapiens) (UniProt Q16769); assay: Inhibition of glutaminyl cyclase (unknown origin) at 10 uM relative to control
A2780 [10] = assay: Induction of cell cycle arrest in human A2780 cells assessed as increase in accumulation of cells at subG1 phase; assay type: functional, cell-based
A2780 [11] = assay: Induction of cell cycle arrest in human A2780 cells assessed as increase in accumulation of cells at subG1 phase 0.5 to 1 uM; assay type: functional, cell-based; settings: dose 0.5-1 µM
CAL-27 [12] = assay: Induction of DNA damage in human CAL-27 cells assessed as gamma-H2AX accumulation at 0.5 uM by Western blot analysis; assay type: functional, cell-based
Cal27CisR [13] = assay: Induction of DNA damage in human Cal27CisR cells assessed as gamma-H2AX accumulation at 0.5 uM by Western blot analysis; assay type: functional, cell-based
CAL-27 [14] = assay: Induction of DNA damage in human CAL-27 cells assessed as gamma-H2AX accumulation at 0.5 uM in presence of cisplatin by Western blot analysis; assay type: functional, cell-based
Cal27CisR [15] = assay: Induction of DNA damage in human Cal27CisR cells assessed as gamma-H2AX accumulation at 0.5 uM in presence of cisplatin by Western blot analysis; assay type: functional, cell-based
CAL-27 [16] = assay: Anti-apoptotic activity in human CAL-27 cells assessed as increase in BCL-2 expression at 0.5 uM incubated for 48 hrs by Western blot analysis; assay type: functional, cell-based
CAL-27 [17] = assay: Anti-apoptotic activity in human CAL-27 cells assessed as increase in BCL-2 expression at 0.5 uM incubated for 48 hrs in presence of cisplatin by Western blot analysis; assay type: functional, cell-based
CAL-27 [18] = assay: Anti-apoptotic activity in human CAL-27 cells assessed as increase in survivin expression at 0.5 uM incubated for 48 hrs by Western blot analysis; assay type: functional, cell-based
CAL-27 [19] = assay: Anti-apoptotic activity in human CAL-27 cells assessed as increase in survivin expression at 0.5 uM incubated for 48 hrs in presence of cisplatin by Western blot analysis; assay type: functional, cell-based
CAL-27 [20] = assay: Induction of apoptosis in human CAL-27 cells assessed as increase in BIM expression at 0.5 uM incubated for 48 hrs by Western blot analysis; assay type: functional, cell-based
CAL-27 [21] = assay: Induction of apoptosis in human CAL-27 cells assessed as increase in BIM expression at 0.5 uM incubated for 48 hrs in presence of cisplatin by Western blot analysis; assay type: functional, cell-based
CAL-27 [22] = assay: cells; settings: Homo sapiens, CAL-27, 72 h
cells [23] = settings: Homo sapiens, Cal27CisR, 72 h
cells [24] = settings: Homo sapiens, Cal27CisR
A2780 [25] = assay: cells; settings: Homo sapiens
A2780cisR = assay: cells; settings: Homo sapiens
HL-60 = assay: cells; settings: Homo sapiens, HL-60, 72 h
Description: Cytotoxicity against human HL-60 cells assessed as cell viability incubated for 72 hrs by MTT assay

Chain of Stromelysin-1 (Homo sapiens) (P08254 100-477 limits assumed): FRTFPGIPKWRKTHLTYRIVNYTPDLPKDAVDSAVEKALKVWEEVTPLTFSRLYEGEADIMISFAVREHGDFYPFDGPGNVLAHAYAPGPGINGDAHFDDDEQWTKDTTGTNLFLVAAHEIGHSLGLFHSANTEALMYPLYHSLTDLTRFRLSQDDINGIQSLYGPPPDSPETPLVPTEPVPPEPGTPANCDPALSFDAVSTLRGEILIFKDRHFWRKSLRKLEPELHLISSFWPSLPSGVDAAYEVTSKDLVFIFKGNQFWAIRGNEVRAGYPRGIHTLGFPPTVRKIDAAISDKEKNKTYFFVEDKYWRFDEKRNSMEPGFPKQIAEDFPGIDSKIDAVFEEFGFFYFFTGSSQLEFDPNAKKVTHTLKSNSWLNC
Chain of Glutaminyl-peptide cyclotransferase (Homo sapiens) (Q16769 29-361 limits assumed): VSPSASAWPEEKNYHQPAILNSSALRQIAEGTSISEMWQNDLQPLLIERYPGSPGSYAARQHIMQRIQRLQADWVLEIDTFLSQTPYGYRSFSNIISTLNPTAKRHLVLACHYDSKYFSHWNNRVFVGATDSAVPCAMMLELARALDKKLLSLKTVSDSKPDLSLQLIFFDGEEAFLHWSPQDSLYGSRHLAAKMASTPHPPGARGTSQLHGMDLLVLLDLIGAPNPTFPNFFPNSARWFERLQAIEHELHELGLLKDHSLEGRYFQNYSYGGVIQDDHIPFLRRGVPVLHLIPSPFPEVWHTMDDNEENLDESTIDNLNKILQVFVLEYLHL
Chain of Matrix metalloproteinase-9 (Homo sapiens) (P14780 whole entry): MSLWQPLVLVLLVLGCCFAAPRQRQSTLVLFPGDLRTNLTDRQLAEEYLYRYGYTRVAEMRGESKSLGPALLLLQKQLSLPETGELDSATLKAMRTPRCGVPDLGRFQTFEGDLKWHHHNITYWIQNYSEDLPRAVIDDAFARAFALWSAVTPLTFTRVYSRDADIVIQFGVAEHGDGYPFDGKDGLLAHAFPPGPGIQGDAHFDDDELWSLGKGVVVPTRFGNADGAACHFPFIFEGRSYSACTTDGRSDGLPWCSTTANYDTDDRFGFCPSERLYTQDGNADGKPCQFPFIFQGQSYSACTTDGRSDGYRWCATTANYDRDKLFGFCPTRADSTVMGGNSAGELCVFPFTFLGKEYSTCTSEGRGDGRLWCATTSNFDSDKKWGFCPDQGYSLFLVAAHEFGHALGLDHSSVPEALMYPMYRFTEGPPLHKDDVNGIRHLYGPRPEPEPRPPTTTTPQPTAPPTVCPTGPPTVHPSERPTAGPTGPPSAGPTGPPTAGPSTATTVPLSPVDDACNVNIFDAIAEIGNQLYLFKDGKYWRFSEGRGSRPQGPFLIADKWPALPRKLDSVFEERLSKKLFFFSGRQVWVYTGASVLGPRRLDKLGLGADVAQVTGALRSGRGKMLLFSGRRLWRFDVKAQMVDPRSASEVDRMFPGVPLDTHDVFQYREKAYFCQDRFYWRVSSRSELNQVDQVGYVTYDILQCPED
Chain of 72 kDa type IV collagenase (Homo sapiens) (P08253 110-660 limits assumed): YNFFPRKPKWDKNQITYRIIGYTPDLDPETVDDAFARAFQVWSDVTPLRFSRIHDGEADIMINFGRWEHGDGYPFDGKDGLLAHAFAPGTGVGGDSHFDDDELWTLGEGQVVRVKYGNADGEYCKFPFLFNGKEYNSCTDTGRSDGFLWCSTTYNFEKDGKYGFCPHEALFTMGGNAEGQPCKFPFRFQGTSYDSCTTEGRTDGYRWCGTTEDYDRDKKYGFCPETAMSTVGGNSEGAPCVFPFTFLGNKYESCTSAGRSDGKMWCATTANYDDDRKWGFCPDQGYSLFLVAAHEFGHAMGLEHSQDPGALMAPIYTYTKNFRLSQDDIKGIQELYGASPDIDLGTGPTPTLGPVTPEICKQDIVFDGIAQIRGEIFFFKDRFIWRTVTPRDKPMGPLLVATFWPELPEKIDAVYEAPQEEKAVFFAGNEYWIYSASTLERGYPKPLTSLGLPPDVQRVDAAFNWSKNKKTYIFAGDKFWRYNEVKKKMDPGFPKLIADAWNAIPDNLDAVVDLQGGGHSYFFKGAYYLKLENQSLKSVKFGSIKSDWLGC

Question: With `CCNNC(=O)c1ccc(CN(CC(=O)NCc2ccccc2)C(=O)c2ccc(N(C)C)cc2)cc1` as the compound, how does the t1/2 [1] read?
Answer: Its t1/2 is 33.93 min.

Question: What about the CLH [2] of the same compound?
Answer: The CLH was 40.9 µL/min/mg.

Question: What about the logD [3] of the same compound?
Answer: The logD was 2.69.

Question: And the inhibition [4]?
Answer: Its inhibition is “inactive”.

Question: And the inhibition [5]?
Answer: The inhibition was “inactive”.

Question: And the inhibition [6]?
Answer: Its inhibition is “inactive”.

Question: And the inhibition [7]?
Answer: The inhibition was “inactive”.

Question: And the inhibition [8]?
Answer: The inhibition was “inactive”.

Question: What about the inhibition [9] of the same compound?
Answer: The inhibition was “inactive”.

Question: And the Activity (A2780 [10])?
Answer: The Activity was “Active”.

Question: What about the Activity (A2780 [11]) of the same compound?
Answer: Its Activity is “Active”.

Question: What about the Activity (CAL-27 [12]) of the same compound?
Answer: Its Activity is “Active”.

Question: What about the Activity (Cal27CisR [13]) of the same compound?
Answer: The Activity was “Active”.

Question: What about the Activity (CAL-27 [14]) of the same compound?
Answer: The Activity was “Active”.

Question: What about the Activity (Cal27CisR [15]) of the same compound?
Answer: The Activity was “Active”.

Question: And the Activity (CAL-27 [16])?
Answer: The Activity was “Active”.

Question: What about the Activity (CAL-27 [17]) of the same compound?
Answer: The Activity was “Active”.

Question: And the Activity (CAL-27 [18])?
Answer: The Activity was “Active”.

Question: What about the Activity (CAL-27 [19]) of the same compound?
Answer: The Activity was “Active”.

Question: What about the Activity (CAL-27 [20]) of the same compound?
Answer: Its Activity is “Active”.

Question: What about the Activity (CAL-27 [21]) of the same compound?
Answer: Its Activity is “Active”.

Question: What about the IC50 (CAL-27 [22]) of the same compound?
Answer: Its IC50 is 1.47 µM.

Question: And the IC50 (cells [23])?
Answer: The IC50 was 2.23 µM.

Question: What about the IC50 (cells [24]) of the same compound?
Answer: Its IC50 is 16.5 µM.

Question: And the IC50 (A2780 [25])?
Answer: Its IC50 is 3.5 µM.

Question: And the IC50 (A2780cisR)?
Answer: The IC50 was 16 µM.

Question: What about the IC50 (HL-60) of the same compound?
Answer: The IC50 was 0.969 µM.
